Source: patent US20020098469A1, “EXTRACORPOREAL METHODS FOR ENHANCING ANTIGEN PRESENTATION AND IMMUNE RESPONSIVENESS” (morgan ,lewis, bockius llp, priority 1996, published 2002)

Columns and labels:
[1] = system: Class I protein on the cell surface; test: Class I expression after 8-MOP/UVA, fluorescent antibody, mean fluorescence channel (FIG. 2); format: cell-based
Description: Mean fluorescence channel measurements permit the quantification of the amount of Class I protein on the cell surface, as identified with a fluorescent antibody against the Class I protein.

[2] = system: C1R B lymphoblastoid line transduced with the Class I B27 allele; test: Class I expression on B27-transduced C1R B lymphoblastoid line, labeled W6/32 monoclonal antibody (FIG. 3); format: cell-based, human; details: for impact on Class I expression: other pharmacologic agents compared with 8-MOP
Experimental: In order to evaluate the enhanced immunogenicity of 8-MOP treated CTCL cells, a series of human lymphoblast lines was derived. The C1R B lymphoblastoid line, which in its native state expresses no HLA-A or HLA-B surface Class I and only a minute amount of HLA-C molecules was transduced with the Class I B27 allele. This modified cell population, with nearly all of its surface Class I molecules being B27, was exposed to 8MOP and incubated overnight.

[3] = system: Class I molecules on transduced C1R B cells; test: Binding of iodinated B27 allele-specific peptide, immunoprecipitation with antibody 4E; format: cell-based, human; details: transduced C1R B cells exposed to 8-MOP
Experimental: To determine if the Class I MHC molecules induced in Example 5 remained functional, i.e., could be loaded with a known B27 allele-specific peptide, iodinated peptide was added under varied conditions.

[4] = system: human B lymphoblasts lacking the TAP genes or with TAP blocked by transduced ICP47; test: TAP dependence of the 8-MOP-induced Class I increase (FIG. 4); format: cell-based; details: B lymphoblasts that lacked the TAP genes or had them blocked by transduced ICP47 (both conditions)
Experimental: Next, it was determined that the 8-MOP-induced increase in surface Class I molecules is dependent on peptide transport across the endoplasmic reticulum through the transporter associated with […] (TAP) pores. […] The increased immunogenicity of 8MOP treated disease-effector cells was thus shown to involve the augmented catabolism of proteins, leading to the generation of small peptides that are then transported to Class I molecules in the endoplasmic reticulum and then on to the cell surface where they associate with the Class I molecules.

[5] = system: C1R human B lymphoblasts displaying B27 Class I complex; test: Class I MHC level of C1R cells incubated in various containers, cytofluorimeter (FIG. 5); format: cell-based; details: photoactivated 8-MOP in the 2410 bag (no leachable plasticizers), about 24 hours at 37° C.
Experimental: In the foregoing experiment, C1R human B lymphoblasts, cells molecularly engineered so that they display a readily studied B27 Class I protein complex, were exposed to photoactivated 8-MOP in the presence of various plastic containers. The mean fluorescence intensity was measured in a cytofluorimeter, using monoclonal antibodies specific for the B27 Class I complex.

Molecule: COc1c2occc2cc2ccc(=O)oc12 [8-MOP, 8-methoxypsoralen]
- Class I molecule expression ([1]; 1 joule per cm^2 of UVA and 200 ng/ml of 8-MOP, incubation about 18 hours, versus control cells): about doubles
- Class I expression ([2]; UVA administered before the addition of 8-MOP, drug not photoactivated): only a minor increase
- time to peak levels of Class I expression after exposure ([2]; optimal levels of 8-MOP): 20 h
- increase of Class I expression over background ([2]; photoactivated 8-MOP, optimal levels, overnight incubation): approximately 3 fold
- allele-specific peptide bound versus untreated cell line control [3]: approximately 3 fold
- increase in functional Class I molecules per cell [3]: > 10,000 functional Class I molecules per cell
- 8-MOP induced increase in Class I molecules [4]: prevented
- Class I MHC level versus untreated controls [5]: more than doubled

Molecule: CC[C@H]1CN2CCc3cc(OC)c(OC)cc3[C@@H]2C[C@@H]1C[C@H]1NCCc2cc(OC)c(OC)cc21 [emetine]
- effect on the 8-MOP/UVA-induced increase in Class I expression ([1]; emetine added to 8-MOP/UVA treated cells): prevented

Molecule: CO[C@@]12[C@H](COC(N)=O)C3=C(C(=O)C(C)=C(N)C3=O)N1C[C@@H]1N[C@@H]12 [mytomycin C]
- impact on Class I expression [2]: either no or a more limited impact

Molecule: TNF-α
- impact on Class I expression [2]: either no or a more limited impact

Molecule: γ-interferon: other pharmacologic agent compared with 8-MOP
- impact on Class I expression [2]: either no or a more limited impact
